Measurements as given in patent US20250223268A1, “4-Methylsulfonylbenzamide Compound, Preparation Method, Herbicidal Composition And Use” (Jiangsu Flag Chemical Industry Co., Ltd., priority 2022, published 2025).

Experiments:
Experiment in all cases: Greenhouse herbicidal activity assay, post-emergence
Format in all cases: in vivo
Conditions in all cases: Post-emergence test, rate 150 g a.i./hm^2; grade by fresh weight inhibition rate
Cyperus iria = test system: Cyperus iria
In short: (§1)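 Scores reflect fresh weight inhibition assessed 14-21 days after treatment, with grade A meaning ≥80% to 100% and grade E meaning <20%. Plants, raised in nutrient-soil pots inside a growth chamber, were sprayed on the foliage at the 3-6 leaf stage.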

Digitaria sanguinalis = test system: Digitaria sanguinalis
In short: as §1

Echinochloa crusgalli = test system: Echinochloa crusgalli
In short: as §1

Eclipta prostrata = test system: Eclipta prostrata
In short: as §1

Leptochloa chinensis = test system: Leptochloa chinensis
In short: as §1

Structure (SMILES) | Control efficacy grade, Cyperus iria (Cyperus iria) | Control efficacy grade, Digitaria sanguinalis (Digitaria sanguinalis) | Control efficacy grade, Echinochloa crusgalli (Echinochloa crusgalli) | Control efficacy grade, Eclipta prostrata (Eclipta prostrata) | Control efficacy grade, Leptochloa chinensis (Leptochloa chinensis)
CS(=O)(=O)c1ccc(C(=O)Nc2nnco2)c(Cl)c1SC1CCCC1 [Compound 3-313] | A (Fresh weight inhibition rate≥80% to 100%) | A (Fresh weight inhibition rate≥80% to 100%) | A (Fresh weight inhibition rate≥80% to 100%) | A (Fresh weight inhibition rate≥80% to 100%) | A (Fresh weight inhibition rate≥80% to 100%)
CCc1nnc(NC(=O)c2ccc(S(C)(=O)=O)c([S+]([O-])CC(F)F)c2Cl)o1 (racemic) [Compound 3-445] | A (Fresh weight inhibition rate≥80% to 100%) | A (Fresh weight inhibition rate≥80% to 100%) | A (Fresh weight inhibition rate≥80% to 100%) | A (Fresh weight inhibition rate≥80% to 100%) | A (Fresh weight inhibition rate≥80% to 100%)
CS(=O)(=O)c1ccc(C(=O)Nc2nnc(C3CC3)o2)c(Cl)c1[S+]([O-])C(F)(F)C(F)(F)F (racemic) [Compound 3-692] | A (Fresh weight inhibition rate≥80% to 100%) | A (Fresh weight inhibition rate≥80% to 100%) | A (Fresh weight inhibition rate≥80% to 100%) | A (Fresh weight inhibition rate≥80% to 100%) | A (Fresh weight inhibition rate≥80% to 100%)
CC(C)c1nnc(NC(=O)c2ccc(S(C)(=O)=O)c([S+]([O-])CC3CC3)c2Cl)o1 (racemic) [Compound 3-531] | A (Fresh weight inhibition rate≥80% to 100%) | A (Fresh weight inhibition rate≥80% to 100%) | A (Fresh weight inhibition rate≥80% to 100%) | A (Fresh weight inhibition rate≥80% to 100%) | A (Fresh weight inhibition rate≥80% to 100%)
CS(=O)(=O)c1ccc(C(=O)Nc2nnco2)c(Cl)c1SCCC#N [Compound 3-373] | A (Fresh weight inhibition rate≥80% to 100%) | A (Fresh weight inhibition rate≥80% to 100%) | A (Fresh weight inhibition rate≥80% to 100%) | A (Fresh weight inhibition rate≥80% to 100%) | A (Fresh weight inhibition rate≥80% to 100%)
CS(=O)(=O)c1ccc(C(=O)Nc2nnco2)c(Cl)c1SC1CC1 [Compound 3-303] | B (Fresh weight inhibition rate≥260% to <80%) | A (Fresh weight inhibition rate≥80% to 100%) | A (Fresh weight inhibition rate≥80% to 100%) | A (Fresh weight inhibition rate≥80% to 100%) | A (Fresh weight inhibition rate≥80% to 100%)
Cc1nnc(NC(=O)c2ccc(S(C)(=O)=O)c([S+]([O-])C3CC3)c2Cl)o1 (racemic) [Compound 3-78] | A (Fresh weight inhibition rate≥80% to 100%) | A (Fresh weight inhibition rate≥80% to 100%) | A (Fresh weight inhibition rate≥80% to 100%) | A (Fresh weight inhibition rate≥80% to 100%) | A (Fresh weight inhibition rate≥80% to 100%)
